In US20250114289A1, “HAIR DYE COMPOSITION” (The Procter & Gamble Company, priority 2023, published 2025):

What was measured:
[1] = Solubility of photochromic dyes in cosmetically acceptable solvents; type: physicochemical
From the text: Thus, it is important to select a solvent that is suitable for use on human skin and hair and enables formulation of a stable hair dye composition with sufficient dye to provide good hair coloring results.

[2] = Activating EMR and deactivating EMR wavelengths of diarylethene photochromic dyes; type: physicochemical; details: for peak deactivating EMR: FIG. 6; for peak activating EMR: FIG. 5
From the text: The activation and deactivation properties are illustrated in FIGS. 5 and 6, respectively.

Row | Structure (SMILES) | Max concentration ([1]; solvent Caprylic triglyceride) | Max concentration ([1]; solvent Isopropyl isostearate) | Max concentration ([1]; solvent Isopropyl myristate) | Max concentration ([1]; solvent Oleyl alcohol) | Max concentration ([1]; solvent Polysorbate 20) | Max concentration ([1]; solvent Polysorbate 80) | peak deactivating EMR [2] | peak activating EMR [2]
1 | Cc1sc(-c2ccccc2)cc1C1=C(c2cc(-c3ccccc3)sc2C)C(F)(F)C(F)(F)C1(F)F [DAE-0001, 3,3′-(perfluorocyclopent-1-ene-1,2-diyl)bis(2-methyl-5-phenylthiophene)] | 0.66 % w/w | 4.95 % w/w | 4.8 % w/w | 1.47 % w/w | 0.9 % w/w | 1.08 % w/w | 560-610 nm | 
2 | Cc1sc(-c2ccccc2)nc1C1=C(c2nc(-c3ccccc3)sc2C)C(F)(F)C(F)(F)C1(F)F [DAE-0012, 4,4′-(perfluorocyclopent-1-ene-1,2-diyl)bis(5-methyl-2-phenylthiazole)] | 0.91 % w/w | 2.32 % w/w | 2.25 % w/w | 0.79 % w/w | 1.78 % w/w | 2.20 % w/w | 510-540 nm | 290-310 nm
3 | Cc1cc(C)c(C2=C(c3sc(C)cc3C)C(F)(F)C(F)(F)C2(F)F)s1 [DAE-0068, 5,5′-(perfluorocyclopent-1-ene-1,2-diyl)bis(2,4-dimethylthiophene)] | 3.46 % w/w | 3.41 % w/w | 3.09 % w/w | 1.34 % w/w | 0.95 % w/w | 0.89 % w/w | 410-450 nm | 330-360 nm
